The text below walks through data of patent US9969755B2, “Photodynamic therapy photosensitizers” (The Royal Institution for the Advancement of …, priority 2016, dated 2018).

Converted amounts (≈) assume the structure as drawn. “And” between values parts separate entries of the source, which are not always exact repeats. Equal entries are not always repeated.

Data set [1] is described as follows: Absorption and steady-state fluorescence, fluorescence quantum yield in acetonitrile. The format is physicochemical. Conditions: for abs λmax / em λmax / Φf (fluorescence quantum yield) / ε (extinction coefficient): acetonitrile, room temperature; for drop in φf following inclusion of I or Br atoms: relative to unsubstituted analogue (1 for 3 and 4; 2 for 5 and 6). The method, then: Absorption spectra were recorded using a Hitachi U-2800 UV-vis-NIR spectrophotometer. Luminescence spectra were recorded using a PTI QuantaMaster spectrofluorimeter using 10×10 mm quartz cuvettes and corrected for detector sensitivity.
The steady-state fluorescence spectra were recorded between 500-800 nm (depending on each compound) upon exciting at the wavelength of the absorbance maxima. The excitation and emission slits were tuned according to the fluorescence quantum yield of each BODIPY (i.e. for compound 7 excitation slits were 5 nm and for compound 4 we used 2 nm). Fluorescence was recorded every 1 nm using 0.1 s integration time. For the Fluorescence lifetime measurements, the excitation rate was 10 MHz, and the detection frequency was less than 100 kHz. Photons were collected at the magic angle. The fluorescence decay traces were fit using FluoFit (Picoquant) software. For steady-state and time-resolved fluorescence measurements a quartz cuvette with a 10 mm path length was used and all the solutions were prepared in air equilibrated acetonitrile.
Quantum yields of fluorescence were measured using PM605 in acetonitrile as a reference. Absorption and emission spectra of PM605 and the dye of interest were measured in acetonitrile at five different concentrations. The integrated intensity versus absorbance were then plotted and fitted linearly. Relative quantum yields of fluorescence for the unknown with respect to the standard were obtained from equation 1, where φ, Δ, and n refer, respectively, to the quantum yield, the slope obtained from the above-mentioned plot, and the solvent refractive index for the unknown (x) or standard (st).

A short description of data set [2]: ^1O2 quantum yield and lifetime, ^1O2 phosphorescence at 1270 nm (direct method). It counts as physicochemical. To be noted: for ΦΔ^D (singlet oxygen quantum yield, direct): ^1O2 phosphorescence at 1270 nm, air equilibrated acetonitrile. The method, then: The generation of singlet oxygen and its lifetime were determined from ^1O2 phosphorescence decay curves recorded at 1270 nm upon excitation with a 532 nm Nd:YAG laser. A total of 3 laser shots were applied to acquire a trace. […] Quantum yield of ^1O2 production (φΔ^D) were calculated comparing the intensity of ^1O2 phosphorescence at 1270 nm for the corresponding photosensitizer with that recorded for Rose Bengal (φΔ=0.54).^81

Data set [3] is described as follows: Intermolecular quenching of ^1O2 phosphorescence by chromanol rings. It counts as physicochemical. To be noted: ^1O2 generated upon irradiation of compound 5, air equilibrated acetonitrile. The source says:
To test whether 7 is equally efficient at deactivating ^1O2 as α-tocopherol, we generated ^1O2 upon irradiation of compound 5 and monitored the ^1O2 phosphorescence lifetime in the presence of increasing amounts of either 7 or PMHC (an α-tocopherol analogue lacking the phytyl tail).

A short description of data set [4]: Autocatalytic activation of compound 7 (monitoring ^1O2 phosphorescence). The format is physicochemical. The method, then: ^1O2 phosphorescence (1270 nm) was monitored with a Hamamatsu NIR detector after different irradiation periods with a Nd:YAG laser operating at 10 Hz. The energy of each laser pulse was 10 mJ exciting at 532 nm. Using the same procedure as described above (Determination of ^1O2 Quantum Yield), a total of 3 laser shots were applied to acquire a trace at different time intervals following the continuous irradiation by a second Nd:YAG laser setup. Laser excitation was performed at 10 Hz, providing one laser output for every discharge of the flashlamp. The energy of each laser pulse was 10 mJ. To prepare the samples with PMHC, we first added to the solvent (acetonitrile, air equilibrated) the desired amount of PMHC from a stock solution. Then, compound 7 was dissolved until reaching Abs=0.3 ([7]=5.8 μM). For the samples containing compound 4, we first dissolved 4 in a stock solution of acetonitrile containing 0.12 μM of PMHC and then the desired volume of this solution was added to the solution containing 7 and same concentration of the antioxidant (0.12 μM of PMHC).

A further data set relates to E. coli ATCC 25922. Nature of the data set: Antibacterial photodynamic inactivation, regular vs hydrogen peroxide stressed bacteria (CFU counts). The format is cell-based. The method, then:
The microorganism used for this study is E. coli ATCC 25922. Stock cultures were preserved at −70° C. using glycerol 10% (v/v) as the cryoprotectant, and the strain was grown in Luria Bertania broth (LB). Bacterial culture was prepared inoculating a single colony from a pure culture. After overnight incubation at 37° C. for 18 h, the culture reached a density of approximately 1×10^9 CFU/mL and it was diluted to 10^6 CFU/mL.
At the end of the irradiation time, 100 μL aliquots were placed in 96 wells from each tube and serially diluted 10-fold in PBS to obtain dilutions of 10^1 to 10^4 fold, in addition to the original concentration, on agar plates to determine CFU. Viability counts were performed at 0 and 1 hour in either dark or light conditions from each dilution, 10 μL aliquots were plated on LB agar. Plates were streaked in triplicate and incubated for 18 h at 37° C. Each experiment was performed at least three times on different days.
To stress the cells we utilized hydrogen peroxide, known to stimulate ROS production in Gram-negative cells.^79,80 We incubated bacteria from the E. coli strain (10^6 colony forming units (CFU)/mL) with 500 nM hydrogen peroxide for 2 hours at 37° C. Following precipitation and resuspension of this bacteria in media with no H2O2, we added compound 7. In parallel, compound 7 was also added to bacteria that were not exposed to H2O2.

The subject of data set [5] is clinical biofilm-producing methicillin-resistant Staphylococcus aureus (MRSA). The data set can be described thus: Photodynamic inactivation of MRSA with ciprofloxacin as stressor. The format is cell-based. The text has this: The strain was a clinical biofilm-producing methicillin-resistant Staphylococcus aureus (MRSA). […] Samples “without exposure to light” were kept wrapped with aluminum foil. Samples “with exposure to light” were irradiated with a LED panel having the following characteristics: 1.6 mW/cm^2 power output with a maxima (centered) at 520 nm and a full width at half maximum (FWHM) of 31 nm. The LED panel consisted of 5 lamps and was placed 10 cm from the sample.

For `CC1=C(I)C(C)=[N+]2C1=C(C)c1c(C)c(I)c(C)n1[B-]2(F)F` [Compound 3, 2,6-diiodo-1,3,5,7,8-pentamethyl-pyrromethene fluoroborate], in data set [1], the “E00 (HOMO-LUMO gap from intercept of normalized absorption and emission spectra)” value is listed as 2.33 eV; the “abs λmax” value came to 521 nm; the “em λmax” value came out at 545 nm; the “Φf (fluorescence quantum yield)” value stood at 0.03 ± 0.01. For the same compound, in data set [1], the “ε (extinction coefficient)” value is 83000 M⁻¹ cm⁻¹ and the “drop in φf following inclusion of I or Br atoms” value (shortened to “drop in φf following inclusion”) came out at 27 fold. Also, in data set [2], the “ΦΔ^D (singlet oxygen quantum yield, direct)” value was 0.81 and 0.81 ± 0.02. Besides, in data set [2] (under 532 nm irradiation, presumably via photooxidation), the photodegradation entry is given as “photodegrade at a slightly larger pace than 5”.
With `CC1=C(Br)C(C)=[N+]2C1=C(C)c1c(C)c(Br)c(C)n1[B-]2(F)F` [Compound 4, 2,6-dibromo-1,3,5,7,8-pentamethyl-pyrromethene fluoroborate], in data set [1], the “E00 (HOMO-LUMO gap from intercept of normalized absorption and emission spectra)” value was found to be 2.37 eV; the “abs λmax” value is on record as 515 nm; the “em λmax” value worked out at 535 nm; the “Φf (fluorescence quantum yield)” value was 0.20 and 0.20 ± 0.02. Besides, in data set [1], the “ε (extinction coefficient)” value stood at 79000 M⁻¹ cm⁻¹ and the “drop in φf following inclusion” value was approximately 4 fold. The “ΦΔ^D (singlet oxygen quantum yield, direct)” value in data set [2] was found to be 0.72 ± 0.02.
For the compound `CC(=O)OCC1=C2C(C)=C(I)C(C)=[N+]2[B-](F)(F)n2c(C)c(I)c(C)c21` [Compound 5, 8-Acetoxymethyl-2,6-diiodo-1,3,5,7-tetramethyl Pyrromethene Fluoroborate], in data set [1], the “E00 (HOMO-LUMO gap from intercept of normalized absorption and emission spectra)” value is given as 2.21 eV; the “abs λmax” value amounted to 550 nm; the “em λmax” value is on record as 572 nm; the “Φf (fluorescence quantum yield)” value is listed as 0.02 ± 0.01. In data set [1], the “ε (extinction coefficient)” value came to 96000 M⁻¹ cm⁻¹ and the “drop in φf following inclusion” value is on record as “ca. 44 fold”. The “ΦΔ^D (singlet oxygen quantum yield, direct)” value in data set [2] is 0.98 and 0.98 ± 0.03.
As for `CC(=O)OCC1=C2C(C)=C(Br)C(C)=[N+]2[B-](F)(F)n2c(C)c(Br)c(C)c21` [Compound 6, 8-Acetoxymethyl-2,6-dibromo-1,3,5,7-tetramethyl Pyrromethene Fluoroborate], in data set [1], the “E00 (HOMO-LUMO gap from intercept of normalized absorption and emission spectra)” value worked out at 2.25 eV; the “abs λmax” value stood at 543 nm; the “em λmax” value worked out at 562 nm; the “Φf (fluorescence quantum yield)” value is 0.14 ± 0.02. Besides, in data set [1], the “ε (extinction coefficient)” value turned out to be 81000 M⁻¹ cm⁻¹ and the “drop in φf following inclusion” value is recorded as approximately 6 fold. In addition, the “ΦΔ^D (singlet oxygen quantum yield, direct)” value in data set [2] amounted to 0.84 ± 0.02.
As usually defined, the MIC is the lowest concentration that inhibits growth of the organism. Regarding `CC1=C(Br)C(C)=[N+]2C1=C(CC1(C)CCc3c(C)c(O)c(C)c(C)c3O1)c1c(C)c(Br)c(C)n1[B-]2(F)F` (stereo not drawn) [Compound 7, 8-((6-Hydroxy-2,5,7,8-tetramethylchroman-2-yl)-methyl)-2,6-dibromo-1,3,5,7-tetramethyl], the “drop in φf caused by the trap segment” value in data set [1] (7 compared to reference 4, 8 compared to 5) is on record as “ca. 25 fold”. In addition, in data set [1], the “abs λmax” value is reported as 532 nm, the “em λmax” value is listed as 557.4 nm and the “ε (extinction coefficient)” value is 56000 M⁻¹ cm⁻¹. For the same compound, the “intramolecular electron transfer rate constant from the singlet state (keT)” value in data set [1] (based on φf≤0.008) is not below 1e+10 s⁻¹. In data set [2] (freshly prepared solutions), the “^1O2 generation” value was “no ^1O2 generation”. In data set [3], the “singlet oxygen quenching rate constant kq” value worked out at 2e+08 M⁻¹ s⁻¹. Besides, the φΔ entry in data set [4] (250 μM PMHC added, before prolonged irradiation) is “undetectable”. Also, the “^1O2 phosphorescence lifetime” value in data set [4] (250 μM PMHC added, within the instrument response) is approximately 3 μs. For the same compound, the “increase in φΔ after prolonged irradiation” value in data set [4] (250 μM PMHC, 8 hs, ˜300,000 laser shots, 10 mJ/pulse) is reported as “ca. 25 fold”. For the same compound, the “fraction of photoexcited 7 undergoing activation through reaction with its own singlet oxygen” value in data set [4] (assuming geminate quenching 100% effective, 5-3% chemical) is reported as “smaller than 2×10^−4”. Further, in data set [4] (assuming keT˜25×kISC and k′eT˜10×kq[O2]), the “fraction of photoexcited 7 effectively sensitizing singlet oxygen” value is reported as < 4×10^−3. The “increase in φΔ over irradiation time” value in data set [4] (direct 532 nm laser excitation, air equilibrated acetonitrile, no PMHC) is “ca. 6 fold”. Moreover, the “colony forming units after irradiation, stressed cells” value in the data set on E. coli ATCC 25922 (E. coli incubated with 500 nM hydrogen peroxide 2 h, 1 h irradiation 2.6 mW/cm^2, 520 nm) is “drastic drop in colony forming units”. In addition, the MIC with E. coli ATCC 25922 (Escherichia coli, ATCC25922, 7 activated in the stressed bacterial suspension (500 nM hydrogen peroxide), 9 pre-activated with dicumyl peroxide, 1 hour, read-out: PD-MIC) is 10 µM (≈ 6.24 µg/mL). The “colony forming units, dark controls” value in the data set on E. coli ATCC 25922 (in the dark, 7 with or without H2O2) is given as “no effect in the CFU”. In the data set with E. coli ATCC 25922 (no H2O2, 1 h irradiation 2.6 mW/cm^2, 520 nm), the “colony forming units after irradiation, non-stressed cells” value is given as “No inactivation was observed”. Also, the “colony forming units upon prolonged illumination, single agent” value in data set [5] (light 0 to 60 minutes, 1.6 mW/cm^2, 520 nm, ciprofloxacin 1 microgram per milliliter only or Br2B-PMHC 10 micromolar only) is on record as “no observed reduction in colony forming units”. Further, the “colony forming units upon illumination in the presence of ciprofloxacin” value in data set [5] (light, 1 microgram per milliliter ciprofloxacin and 5 or 10 micromolar Br2B-PMHC) is “clear reduction in colony forming units”.
